Assay results from ChEMBL document CHEMBL4725408, “Antibacterial Spiropyrimidinetriones with N-Linked Azole Substituents on a Benzisoxazole Scaffold Targeting DNA Gyrase” (J Med Chem, 2020).
≈ marks a conversion by molar mass, not a printed value. Calls of active or inactive are those of the source. The calls are words filed in the database; no cut-off is given here.

What was measured:
[1] = Inhibition of recombinant Escherichia coli DNA gyrase AB expressed in Escherichia coli BL21 (DE3) using relaxed pJT519 DNA as substrate preincubated for 20 mins followed by 5'-BODIPY-TMR-TTCTTCTTCT addition and measured after 1 hr by fluorescence anisotropy
[2] = n-octanol/phosphate buffer partition coefficient, log D of the compound at pH 7.4 measured after 1 hr by UV-LC/MS based shake flask method; type: physicochemical
[3] = Protein binding in human plasma assessed as unbound fraction at 10 uM measured after 16 hrs by LC-MS/MS based equilibrium dialysis method; type: ADME, cell-free
Staphylococcus aureus [4] = assay: Antibacterial activity against methicillin sensitive Staphylococcus aureus ARC516 by broth microdilution method; type: functional
Staphylococcus aureus [5] = assay: Antibacterial activity against methicillin sensitive Staphylococcus aureus ARC516 in presence of human serum by broth microdilution method; type: functional
Staphylococcus aureus [6] = assay: Antibacterial activity against methicillin/quinolone-resistant Staphylococcus aureus ARC517 by broth microdilution method; type: functional
[7] = Ratio of MIC for antibacterial activity against methicillin/quinolone-resistant Staphylococcus aureus ARC517 to protein binding in human plasma assessed as unbound fraction
Escherichia coli = assay: Antibacterial activity against Escherichia coli ARC523 by broth microdilution method; type: functional
[8] = Protein binding in mouse plasma assessed as unbound fraction at 10 uM measured after 16 hrs by LC-MS/MS based equilibrium dialysis method; type: ADME, cell-free
[9] = Protein binding in rat plasma assessed as unbound fraction at 10 uM measured after 16 hrs by LC-MS/MS based equilibrium dialysis method; type: ADME, cell-free
[10] = Plasma clearance in CD-1 mouse at 3 mg/kg, iv administered as 15 mins infusion by LC-MS/MS analysis; type: ADME, organism-based; conditions: in vivo, 0.25 h
[11] = Unbound plasma clearance in CD-1 mouse at 3 mg/kg, iv administered as 15 mins infusion by LC-MS/MS analysis; type: ADME, organism-based; conditions: in vivo, 0.25 h
[12] = Volume of distribution at steady state in CD-1 mouse at 3 mg/kg, iv administered as 15 mins infusion by LC-MS/MS analysis; type: ADME, organism-based; conditions: in vivo, read-out: Vdss
[13] = Volume of distribution at steady state in Wistar Han rat at 3 mg/kg, iv administered as 15 mins infusion by LC-MS/MS analysis; type: ADME, organism-based; conditions: in vivo, read-out: Vdss
[14] = Half life in CD-1 mouse at 3 mg/kg, iv administered as 15 mins infusion by LC-MS/MS analysis; type: ADME, organism-based; conditions: in vivo
[15] = Half life in Wistar Han rat at 3 mg/kg, iv administered as 15 mins infusion by LC-MS/MS analysis; type: ADME, organism-based; conditions: in vivo
[16] = Oral bioavailability in CD-1 mouse at 10 mg/kg by LC-MS/MS analysis; type: ADME, organism-based; conditions: in vivo
[17] = Oral bioavailability in Wistar Han rat at 10 mg/kg by LC-MS/MS analysis; type: ADME, organism-based; conditions: in vivo
Staphylococcus aureus [18] = assay: Antibacterial activity against methicillin sensitive Staphylococcus aureus ARC516 infected in CD-1 mouse neutropenic thigh infection model assessed as log reduction in colony forming unit at 100 mg/kg, ip bid in presence of ABT relative to initial treatment control; type: functional
Staphylococcus aureus [19] = assay: Antibacterial activity against methicillin sensitive Staphylococcus aureus ARC516 infected in CD-1 mouse neutropenic thigh infection model assessed as reduction in colony forming unit at 20 mg/kg, ip bid in presence of ABT; type: functional, organism-based
L5178Y = assay: Genotoxicity in mouse L5178Y cells using DAPI staining by microscopy based micronucleation assay; type: toxicity, cell-based
[20] = Solubility of the compound by high throughput solubility assay; type: physicochemical
Streptococcus pneumoniae = assay: Antibacterial activity against Streptococcus pneumoniae ARC548 by broth microdilution method; type: functional
Streptococcus pyogenes = assay: Antibacterial activity against Streptococcus pyogenes ARC838 by broth microdilution method; type: functional
Haemophilus influenzae = assay: Antibacterial activity against Haemophilus influenzae ARC737 by broth microdilution method; type: functional
Staphylococcus aureus [21] = assay: Antibacterial activity against methicillin sensitive Staphylococcus aureus ARC516 infected in CD-1 mouse neutropenic thigh infection model assessed as log reduction in colony forming unit at 50 to 75 mg/kg, ip measured after 24 hrs relative to untreated control; type: functional; conditions: dose mg/kg 50-75
Staphylococcus aureus [22] = assay: Antibacterial activity against methicillin sensitive Staphylococcus aureus ARC516 infected in CD-1 mouse neutropenic thigh infection model assessed as log reduction in colony forming unit at 50 to 75 mg/kg, ip measured after 24 hrs relative to initial treatment control; type: functional; conditions: dose mg/kg 50-75
Staphylococcus aureus [23] = assay: Antibacterial activity against methicillin sensitive Staphylococcus aureus ARC516 infected in CD-1 mouse neutropenic thigh infection model assessed as reduction in colony forming unit at 10 to 25 mg/kg, ip measured after 24 hrs; type: functional, organism-based
[24] = Plasma clearance in Wistar Han rat at 3 mg/kg, iv administered as 15 mins infusion by LC-MS/MS analysis; type: ADME, organism-based; design: unit not given here; conditions: in vivo, 0.25 h
[25] = Unbound plasma clearance in Wistar Han rat at 3 mg/kg, iv administered as 15 mins infusion by LC-MS/MS analysis; type: ADME, organism-based; design: unit not given here; conditions: in vivo, 0.25 h

SMILES	IC50 [1] [nM]	logD at 1 h [2]	fraction unbound at 16 h, 10 µM [3]	MIC (Staphylococcus aureus [4]) [µM]	MIC (Staphylococcus aureus [5]) [µM]	MIC (Staphylococcus aureus [6]) [µM]	Ratio [7]	MIC (Escherichia coli) [µM]	fraction unbound at 16 h, 10 µM [8]	fraction unbound at 16 h, 10 µM [9]	CL [10] [mL/min/kg]	CL free [11] [mL/min/kg]	Vd [13] [L/kg]	NOAEL (L5178Y) [µM]	solubility [20] [µM]	MIC (Streptococcus pneumoniae) [µM]	MIC (Streptococcus pyogenes) [µM]	MIC (Haemophilus influenzae) [µM]	CL [24]	CL free [25]	further results
C[C@@H]1CN2c3c(cc4c(N5C(=O)OC[C@@H]5C)noc4c3F)CC3(C(=O)NC(=O)NC3=O)[C@H]2[C@H](C)O1 [ZOLIFLODACIN]	170	1.7	0.18	0.2 (≈ 0.0975 µg/mL)	0.39	0.78 (≈ 0.38 µg/mL)	4.3	6.2 (≈ 3.02 µg/mL)	0.17	0.13	0.057	0.335	1.5	> 400	–	–	–	–	–	–	Vd [12]: 3 L/kg; half-life [14]: 36.6 min; half-life [15]: 47.4 min; bioavailability [16]: 43.5%; bioavailability [17]: 31%; log(activity) (Staphylococcus aureus [18]): 1.8; Activity (Staphylococcus aureus [19]): Active
C[C@@H]1CN2c3c(cc4c(-n5cncn5)noc4c3F)CC3(C(=O)NC(=O)NC3=O)[C@H]2[C@H](C)O1	220	1.7	0.13	0.049 (≈ 0.0223 µg/mL)	< 0.2	0.2 (≈ 0.0911 µg/mL)	1.4	12.5 (≈ 5.69 µg/mL)	0.12	0.1	0.021	0.175	1.9	< 6	250 (≈ 114 µg/mL)	0.39 (≈ 0.178 µg/mL)	0.39 (≈ 0.178 µg/mL)	0.39 (≈ 0.178 µg/mL)	–	–	half-life [15]: 145 min; bioavailability [16]: 37%; bioavailability [17]: 62%; log(activity) (Staphylococcus aureus [21]): 4; log(activity) (Staphylococcus aureus [22]): >2; Activity (Staphylococcus aureus [23]): Active
CNc1ncnn1-c1noc2c(F)c3c(cc12)CC1(C(=O)NC(=O)NC1=O)[C@H]1[C@H](C)O[C@H](C)CN31	71	2.1	0.08	0.049 (≈ 0.0237 µg/mL)	< 0.2	0.2 (≈ 0.0969 µg/mL)	–	16 (≈ 7.75 µg/mL)	–	–	–	–	–	3	280 (≈ 136 µg/mL)	0.19 (≈ 0.092 µg/mL)	0.19 (≈ 0.092 µg/mL)	0.39 (≈ 0.189 µg/mL)	32	190	–
C[C@@H]1CN2c3c(cc4c(-n5cncn5)noc4c3Cl)CC3(C(=O)NC(=O)NC3=O)[C@H]2[C@H](C)O1	120	2	0.074	< 0.2	0.39	0.39 (≈ 0.184 µg/mL)	–	12 (≈ 5.66 µg/mL)	–	–	–	–	–	< 6	420 (≈ 198 µg/mL)	0.39 (≈ 0.184 µg/mL)	0.39 (≈ 0.184 µg/mL)	0.78 (≈ 0.368 µg/mL)	11.6	156	–
C[C@@H]1CN2c3c(cc4c(-n5cnc(C#N)n5)noc4c3F)CC3(C(=O)NC(=O)NC3=O)[C@H]2[C@H](C)O1	1300	2	–	0.2 (≈ 0.0961 µg/mL)	3.1	0.39 (≈ 0.187 µg/mL)	–	100 (≈ 48 µg/mL)	–	–	–	–	–	< 6	5 (≈ 2.4 µg/mL)	1.6 (≈ 0.769 µg/mL)	0.8 (≈ 0.384 µg/mL)	3.1 (≈ 1.49 µg/mL)	200	2600	–
